Experiments:
Assay in all cases: NCI60 single-dose SRB assay
Format in all cases: cell-based, human
[1] = system: A498; conditions: A498, Renal Cancer, 10 μM
Method: (§1) Compounds 19 and 20 were supplied to National Cancer Institute (USA), for sulforhodamine B (SRB) assay and anticancer screening. Single-dose (10 µM) assay results for compounds 19 and 20 were provided as a mean of percent growth (% G) and growth inhibition (% GI) against 60 cell lines of nine types of cancers and are tabulated in Table 4. […] Both the compounds 19 and 20 were also found active on UO-31 renal cancer cell line with % GI of 21.18 and 29.95, respectively.
(§2) Compounds 19 and 20 were supplied to National Cancer Institute (Bethesda, Maryland, USA), for in vitro sulforhodamine B (SRB) assay, anticancer screening on 60 cell lines of cancers of leukemia, melanoma, and tumors of the kidney, brain, breast, lung, colon, ovary, and prostate, as per their standard protocol. One dose anticancer results (NCI, USA) of compounds 19 and 20 are provided in the Supplementary Materials.

[2] = system: ACHN; conditions: Renal Cancer, 10 μM
Method: as §1, §2

[3] = system: CCRF-CEM; conditions: Leukemia, 10 μM
Method: as §1, §2

[4] = system: COLO 205; conditions: COLO 205, Colon Cancer, 10 μM
Method: as §1, §2

[5] = system: DU-145; conditions: DU-145, Prostate Cancer, 10 μM
Method: as §1, §2

[6] = system: HCT-15; conditions: HCT-15, Colon Cancer, 10 μM
Method: as §1, §2

[7] = system: HOP-62; conditions: HOP-62, Non-Small Cell Lung Cancer, 10 μM
Method: as §1, §2

[8] = system: HOP-92; conditions: HOP-92, Non-Small Cell Lung Cancer, 10 μM
Method: as §1, §2

[9] = system: HT29; conditions: HT29, Colon Cancer, 10 μM
Method: as §1, §2

[10] = system: IGROV1; conditions: IGROV1, Ovarian Cancer, 10 μM
Method: as §1, §2

[11] = system: K-562; conditions: K-562, Leukemia, 10 μM
Method: as §1, §2

[12] = system: KM12; conditions: KM12, Colon Cancer, 10 μM
Method: as §1, §2

[13] = system: M14; conditions: M14, Melanoma, 10 μM
Method: as §1, §2

[14] = system: MALME-3M; conditions: Melanoma, 10 μM
Method: as §1, §2

[15] = system: MCF7; conditions: MCF7, Breast Cancer, 10 μM
Method: as §1, §2

[16] = system: MDA-MB-468; conditions: MDA-MB-468, Breast Cancer, 10 μM
Method: as §1, §2

[17] = system: MOLT-4; conditions: MOLT-4, Leukemia, 10 μM
Method: as §1, §2

[18] = system: NCI-H460; conditions: NCI-H460, Non-Small Cell Lung Cancer, 10 μM
Method: as §1, §2

[19] = system: OVCAR-3; conditions: OVCAR-3, Ovarian Cancer, 10 μM
Method: as §1, §2

[20] = system: OVCAR-4; conditions: OVCAR-4, Ovarian Cancer, 10 μM
Method: as §1, §2

[21] = system: OVCAR-5; conditions: OVCAR-5, Ovarian Cancer, 10 μM
Method: as §1, §2

[22] = system: SF-268; conditions: SF-268, CNS Cancer, 10 μM
Method: as §1, §2

[23] = system: SF-295; conditions: SF-295, CNS Cancer, 10 μM
Method: as §1, §2

[24] = system: SK-MEL-5; conditions: SK-MEL-5, Melanoma, 10 μM
Method: as §1, §2

[25] = system: SK-OV-3; conditions: SK-OV-3, Ovarian Cancer, 10 μM
Method: as §1, §2

[26] = system: SN12C; conditions: Renal Cancer, 10 μM
Method: as §1, §2

[27] = system: SNB-19; conditions: SNB-19, CNS Cancer, 10 μM
Method: as §1, §2

[28] = system: SNB-75; conditions: SNB-75, CNS Cancer, 10 μM
Method: as §1, §2

[29] = system: SR; conditions: Leukemia, 10 μM
Method: as §1, §2

[30] = system: SW-620; conditions: SW-620, Colon Cancer, 10 μM
Method: as §1, §2

[31] = system: T-47D; conditions: Breast Cancer, 10 μM
Method: as §1, §2

[32] = system: U251; conditions: U251, CNS Cancer, 10 μM
Method: as §1, §2

NS(=O)(=O)c1ccc(N2CC(c3nc4ccccc4o3)CC2=O)cc1 (centres unmarked) [Compound 20, 4-(4-(Benzo[d]oxazol-2-yl)-2-oxopyrrolidin-1-yl)benzenesulfonamide]
% G [1]: 113.94% | % GI [1]: −13.94% | % G [2]: 89.48% | % GI [2]: 10.52% | % G [3]: 94.48% | % GI [3]: 5.52% | % G [4]: 104.05% | % GI [4]: −4.05% | % G [5]: 111.62% | % GI [5]: −11.62% | % G [6]: 101.16% | % GI [6]: −1.16% | % G [7]: 81.97% | % GI [7]: 18.03% | % G [8]: 77.78% | % GI [8]: 22.22% | % G [9]: 103.23% | % GI [9]: −3.23% | % G [10]: 101.63% | % GI [10]: −1.63% | % G [11]: 98.83% | % GI [11]: 1.17% | % G [12]: 101.16% | % GI [12]: −1.16% | % G [13]: 98.58% | % GI [13]: 1.42% | % G [14]: 93.29% | % GI [14]: 6.71% | % G [15]: 92.32% | % GI [15]: 7.68% | % G [16]: 100.34% | % GI [16]: −0.34% | % G [17]: 92.47% | % GI [17]: 7.53% | % G [18]: 104.20% | % GI [18]: −4.20% | % G [19]: 98.53% | % GI [19]: 1.47% | % G [20]: 99.47% | % GI [20]: 0.53% | % G [21]: 92.08% | % GI [21]: 7.92% | % G [22]: 87.43% | % GI [22]: 12.57% | % G [23]: 93.71% | % GI [23]: 6.29% | % G [24]: 98.82% | % G [25]: 94.77% | % GI [25]: 5.23% | % G [26]: 95.50% | % GI [26]: 4.50% | % G [27]: 97.02% | % GI [27]: 2.98% | % G [28]: 68.12% | % GI [28]: 31.88% | % G [29]: 93.20% | % GI [29]: 6.80% | % G [30]: 102.95% | % GI [30]: −2.95% | % G [31]: 83.24% | % G [32]: 95.21% | % GI [32]: 4.79%
